Results published in patent US20020026945A1, “Enhancement of photodynamic therapy by anti-angiogenic treatment” (priority 2000, published 2002).
Residues, ends and D or L forms follow the SMILES beside them.

Key:
VEGF [1] = experiment: Western immunoblot of VEGF in treated tumors; design: species or system C3H mice; details: tumor lysates collected 24 hours after in-vivo PDT
Description: (§1) In FIG. 1A, tumors were collected immediately following treatment and evaluated for HIF-1α expression by Western immunoblot analysis. HIF-1α was not detectable in control tumors measuring 6-7 mm in diameter. […] In FIG. 1B, separate tumors were collected 24 hr after photodynamic therapy or clamping (45 min) and assayed for VEGF expression by Western immunoblot analysis. Expression of actin was used to monitor protein loading.
(§2) In-vivo photodynamic therapy tumor treatments were performed as previously reported on tumors measuring 6-7 mm in diameter (17). Briefly, photodynamic therapy procedures included an i.v. injection of PH (5 mg/kg) followed 24 h later with non-thermal laser tumor irradiation using an argon pumped dye laser emitting red light at 630 nm. A light dose rate of 75 mW/cm^2 and a total light dose of 200 J/cm^2 were used for all in-vivo PDT treatments. Following treatment, tumors were measured 3 times per week. Cures were defined as being disease free for at least 40 days following photodynamic therapy (17). Anti-angiogenic treatment was performed using either EMAP-II or IM862. […]
(§3) Tumors were collected at various times after treatment, homogenized with a polytron in 1X reporter lysis buffer (Promega, Wis.) and evaluated for protein expression as described previously (18). […]

BA mammary carcinomas = experiment: In-vivo PDT tumor treatment, tumor cures; design: species or system C3H/HeJ mice; details: for tumor cures or tumor regression / tumor growth parameters: anti-angiogenic treatment alone, daily IP for 10 days, no PDT; for tumor cures: single PDT (PH 5 mg/kg, 200 J/cm^2) plus daily IP injections for 10 days (EMAP-II 50 μg/kg, IM862 25 mg/kg), disease free at least 40 days
Description: BA mouse mammary carcinoma cells (originally obtained from the NIH tumor bank) were used in all in-vitro and in-vivo experiments (17). Cells were grown as a monolayer in RPMI 1640 media supplemented with 10% fetal calf serum (FCS) and antibiotics. The plating efficiency for the BA cells ranged from 40-60%. Subcutaneous BA mammary carcinomas were generated by trocar injection of 1-mm^3 pieces of tumor to the hind right flank of 8-12 week old female C3H/HeJ mice (17).
In-vivo photodynamic therapy tumor treatments were performed as previously reported on tumors measuring 6-7 mm in diameter (17). Briefly, photodynamic therapy procedures included an i.v. injection of PH (5 mg/kg) followed 24 h later with non-thermal laser tumor irradiation using an argon pumped dye laser emitting red light at 630 nm. A light dose rate of 75 mW/cm^2 and a total light dose of 200 J/cm^2 were used for all in-vivo PDT treatments. Following treatment, tumors were measured 3 times per week. Cures were defined as being disease free for at least 40 days following photodynamic therapy (17). Anti-angiogenic treatment was performed using either EMAP-II or IM862. Each compound was administered as daily IP injections for 10 consecutive days starting 1 h prior to photodynamic therapy light treatment. Individual IM862 doses were 25 mg/kg and individual EMAP-II doses were 50 μg/kg. Tumor tissue hypoxia was induced in selected experiments by clamping lesions for 45 minutes. Statistical analysis was performed using the X^2 test for evaluation of tumor cure rates.
A photodynamic therapy procedure, which produced a moderate cure rate alone, was used to measure positive or negative changes in tumor response when a single photodynamic therapy treatment was combined with daily injections of EMAP-II or IM862 for 10 days (17).

HIF-1α = experiment: Western immunoblot of HIF-1α in treated tumors; format: in vivo, C3H mice
Description: as §1, §2, §3

VEGF [2] = experiment: VEGF ELISA of culture media of BA mammary carcinoma cells; format: cell-based, mouse; details: in-vitro PDT, PH 25 μg/ml, 210 J/m^2, measured 24 hr after treatment
[3] = in vivo; cited from earlier work
angiogenesis = details: preclinical studies; cited from earlier work
xenograft models = details: in vivo; cited from earlier work
tumor cells = details: cited from earlier work
VEGF [4] = experiment: VEGF ELISA of tumor extracts after PDT; format: in vivo, mouse; details: PDT plus 2 doses of agent versus PDT alone; tumors collected 24 hr after PDT
Description: Tumor bearing mice received either no treatment (Control), photodynamic therapy alone, or photodynamic therapy plus 2 injections of either EMAP-II or IM862 (1 hr prior to photodynamic therapy and 23 hr after photodynamic therapy). Tumor samples were collected 24 hr after PDT and assayed for VEGF expression using a commercial ELISA assay kit. Each group represents the mean ± SE of 6 individual tumor samples.
as §2
A Quantikine M mouse VEGF ELISA kit (R&D Systems, Minneapolis, Minn.) was used to quantify VEGF levels in cell culture media as well as in tumor extracts from control and treated mice. […]
The effects of the anti-angiogenic derivatives on photodynamic therapy induced VEGF levels were analyzed in the treated tumors. […]

[5] = tested on: AIDS associated Kaposi's sarcoma; details: intranasal administration; reference 16; cited from earlier work
VEGF [6] = details: preclinical studies; cited from earlier work
tumor growth = details: reference 15; cited from earlier work
vessel ingrowth = details: experimental angiogenesis models and primary tumors; cited from earlier work
[7] = tested on: growing capillary endothelial cells; details: time and dose dependent; reference 15; cited from earlier work
[8] = in vivo; cited from earlier work; remark: listed apart in the source

Molecule | VEGF expression within treated lesions (Western) (VEGF [1]) | cure rate (BA mammary carcinomas; photodynamic therapy alone (PH 5 mg/kg i.v., 630 nm, 200 J/cm^2), cure = disease free for at least 40 days) | HIF-1α expression (Western) (HIF-1α; PDT (PH 5 mg/kg; 200 J/cm^2), tumors collected immediately following treatment) | time after photodynamic therapy at which HIF-1α expression is observed (HIF-1α; PDT of BA tumors in C3H mice) | VEGF levels in culture media (VEGF [2]) | safety and tolerability [3] | angiogenesis in chorioallantoic membrane assays (angiogenesis) | tumor growth in xenograft models (xenograft models) | direct cytotoxic effect on tumor cells (tumor cells) | tumor cures or tumor regression (BA mammary carcinomas) | tumor growth parameters (BA mammary carcinomas) | tumor cures (BA mammary carcinomas) | VEGF levels in PDT treated tumors (ELISA) (VEGF [4]) | antitumor activity in patients [5] | VEGF production in monocytic lineage cells (VEGF [6]) | tumor growth (tumor growth) | vessel ingrowth (vessel ingrowth) | apoptosis in growing capillary endothelial cells [7] | toxicity in normal organs [8]
Photofrin porfimer sodium | induced significant increases in VEGF expression | 39% | induced HIF-1α expression | ≤ 5 min | modestly increase in VEGF levels |  |  |  |  |  |  |  |  |  |  |  |  |  | 
N[C@@H](CCC(=O)O)C(=O)N[C@@H](Cc1c[nH]c2ccccc12)C(=O)O [IM862, L-glutamyl-L-tryptophan] (H-Glu-Trp-OH) |  |  |  |  |  | safe and well tolerated | inhibits angiogenesis | inhibits tumor growth | no direct cytotoxic effect | did not produce any tumor cures or tumor regression | only slightly modified tumor growth parameters | 78% | decrease in VEGF levels | exhibits antitumor activity | inhibits VEGF production |  |  |  | 
EMAP-II: recombinant single chain polypeptide which inhibits tumor growth and has anti-angiogenic activity (protein, UniProt Q12904 147-312, looked up, Endothelial monocyte-activating polypeptide 2) Endothelial …: SKPIDVSRLDLRIGCIITARKHPDADSLYVEEVDVGEIAPRTVVSGLVNHVPLEQMQNRMVILLCNLKPAKMRGVLSQAMVMCASSPEKIEILAPPNGSVPGDRITFDAFPGEPDKELNPKKKIWEQIQPDLHTNDECVATYKGVPFEVKGKGVCRAQTMSNSGIK |  |  |  |  |  |  |  |  |  | did not produce any tumor cures or tumor regression | only slightly modified tumor growth parameters | 89% | statistically significant decrease |  |  | inhibits tumor growth | prevents vessel ingrowth | induces apoptosis | does not induce toxicity
